Data reported in PubChem BioAssay AID330 (DTP/NCI, 2004).
Where “and” joins values, the source holds several entries; their conditions need not be identical. Equal entries are not always repeated. Toxic doses and inconclusive results are not listed. Rule for the calls: active = survival T/C of 150% or more; inactive = T/C below 125% in these data.

Tested on: P388 leukemia ip, CD2F1 mice, survival T/C
Assay: NCI In Vivo Anticancer Drug Screen. Data for tumor model P388 Leukemia (intraperitoneal) in CD2F1 (CDF1) mice
Conditions: endpoint: median survival time, higher = longer survival
Method in brief: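 Mice carrying the transplanted tumor received test compound or vehicle. Survival was recorded in each group, and the value is the treated-group measurement divided by that of the vehicle-treated control group.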

[1] = dose: 50.0 mg/kg/injection, schedule: Q01DX005 (ip), vehicle: Klucel (hydroxypropylcellulose) (HPC)
[2] = dose: 100.0 mg/kg/injection, schedule: Q01DX005 (ip), vehicle: Klucel (hydroxypropylcellulose) (HPC)
[3] = dose: 100.0 mg/kg/injection, schedule: Q01DX005 (ip), vehicle: saline with Tween-80
[4] = dose: 200.0 mg/kg/injection, schedule: Q01DX005 (ip), vehicle: saline with Tween-80
[5] = dose: 50.0 mg/kg/injection, schedule: Q01DX005 (ip), vehicle: saline with Tween-80
[6] = dose: 50.0 mg/kg/injection, schedule: Q01DX009 (ip), vehicle: saline with Tween-80
[7] = dose: 100.0 mg/kg/injection, schedule: Q01DX009 (ip), vehicle: saline with Tween-80
[8] = dose: 50.0 mg/kg/injection, schedule: Q01DX009 (ip), vehicle: saline
[9] = dose: 200.0 mg/kg/injection, schedule: Q01DX009 (ip), vehicle: saline with Tween-80
[10] = dose: 400.0 mg/kg/injection, schedule: Q01DX009 (ip), vehicle: saline with Tween-80
[11] = dose: 50.0 mg/kg/injection, schedule: Q01DX009 (ip), vehicle: Klucel (hydroxypropylcellulose) (HPC)
[12] = dose: 100.0 mg/kg/injection, schedule: Q01DX009 (ip), vehicle: Klucel (hydroxypropylcellulose) (HPC)
[13] = dose: 200.0 mg/kg/injection, schedule: Q01DX009 (ip), vehicle: Klucel (hydroxypropylcellulose) (HPC)

Measured: T/C

O=C(O)[C@H](Cc1ccccc1)N1C(=O)c2ccccc2C1=O
inactive: dose: 50.0 mg/kg/injection, schedule: Q01DX005 (ip), vehicle: DMSO 105 % of control | [1] 109 % of control | dose: 100.0 mg/kg/injection, schedule: Q01DX005 (ip), vehicle: DMSO 100 % of control | [2] 105 % of control | [3] 99 % of control | dose: 125.0 mg/kg/injection, schedule: Q01DX001 (ip), vehicle: saline with Tween-80 102 % of control | dose: 200.0 mg/kg/injection, schedule: Q01DX005 (ip), vehicle: DMSO 100 % of control | dose: 200.0 mg/kg/injection, schedule: Q01DX005 (ip), vehicle: Klucel (hydroxypropylcellulose) (HPC) 101 % of control | [4] 107 % of control | dose: 250.0 mg/kg/injection, schedule: Q01DX001 (ip), vehicle: saline with Tween-80 95 % of control | dose: 400.0 mg/kg/injection, schedule: Q01DX005 (ip), vehicle: DMSO 100 % of control | dose: 400.0 mg/kg/injection, schedule: Q01DX005 (ip), vehicle: saline with Tween-80 105 % of control | dose: 500.0 mg/kg/injection, schedule: Q01DX001 (ip), vehicle: saline with Tween-80 100 % of control and 105 % of control | dose: 800.0 mg/kg/injection, schedule: Q01DX005 (ip), vehicle: DMSO 107 % of control

CCn1c2ccccc2c2cc(N=Nc3ccc(N)nc3N)ccc21
inactive: [5] 94 % of control | [3] 94 % of control | [4] 96 % of control

C=CC(=O)C1OC2OC(C)(C)OC2C2OC(C)(C)OC12 (stereo not given)
inactive: [5] 93 % of control | [3] 97 % of control | [4] 98 % of control

Cn1nc(-c2ccc(Cl)c(Cl)c2)nc2c(=O)n(C)c(=O)nc1-2
inactive: dose: 12.5 mg/kg/injection, schedule: Q01DX001 (ip), vehicle: Klucel (hydroxypropylcellulose) (HPC) 102 % of control | dose: 25.0 mg/kg/injection, schedule: Q01DX001 (ip), vehicle: Klucel (hydroxypropylcellulose) (HPC) 107 % of control | dose: 50.0 mg/kg/injection, schedule: Q01DX001 (ip), vehicle: Klucel (hydroxypropylcellulose) (HPC) 103 % of control and 114 % of control

CC(=O)N/N=C1/C=C2C/C(=N\NC(C)=O)C=C2C1
inactive: [5] 99 % of control | [3] 95 % of control | [4] 90 % of control

Cc1cc(N(CCOS(C)(=O)=O)CCOS(C)(=O)=O)ccc1C=Nc1ccc(-c2csc(-c3ccc(Br)cc3)n2)cc1
inactive: [7] 98 % of control and 90 % of control
active: dose: 25.0 mg/kg/injection, schedule: Q01DX009 (ip), vehicle: saline with Tween-80 180 % of control | [6] 209 % of control

COC(=O)C1=C(C2=C(C(=O)OC)CCC2)CCC1
inactive: dose: 100.0 mg/kg/injection, schedule: Q04DX002 (ip), vehicle: saline with Tween-80 93 % of control | dose: 200.0 mg/kg/injection, schedule: Q04DX002 (ip), vehicle: saline with Tween-80 97 % of control | dose: 400.0 mg/kg/injection, schedule: Q04DX002 (ip), vehicle: saline with Tween-80 100 % of control

N#Cc1nc(CC(=O)c2ccccn2)c(CC(=O)c2ccccn2)nc1C#N
inactive: dose: 60.0 mg/kg/injection, schedule: Q01DX005 (ip), vehicle: saline with Tween-80 111 % of control | dose: 120.0 mg/kg/injection, schedule: Q01DX005 (ip), vehicle: saline with Tween-80 93 % of control

c1ccc2c(CC3=NCCN3)noc2c1
inactive: dose: 12.5 mg/kg/injection, schedule: Q01DX009 (ip), vehicle: saline 98 % of control | dose: 25.0 mg/kg/injection, schedule: Q01DX009 (ip), vehicle: saline 105 % of control | [8] 103 % of control and 107 % of control

O=C1CCCOCCCOCCCOCCCOCCCOCCC1
inactive: [5] 103 % of control | [3] 100 % of control | [4] 100 % of control

On1cnc(=S)c2[nH]cnc21
inactive: [7] 90 % of control | dose: 100.0 mg/kg/injection, schedule: Q04DX003 (ip), vehicle: saline sonified 100 % of control | [9] 100 % of control | dose: 200.0 mg/kg/injection, schedule: Q04DX003 (ip), vehicle: saline sonified 100 % of control | [10] 109 % of control | dose: 400.0 mg/kg/injection, schedule: Q04DX003 (ip), vehicle: saline sonified 90 % of control

CC1NCCCN(CCN(C)C)CCCNC(C)c2cccc1n2 (stereo not given)
inactive: dose: 50.0 mg/kg/injection, schedule: Q01DX001 (ip), vehicle: saline 103 % of control and 96 % of control | dose: 100.0 mg/kg/injection, schedule: Q01DX001 (ip), vehicle: saline 101 % of control and 114 % of control and 92 % of control | dose: 200.0 mg/kg/injection, schedule: Q01DX001 (ip), vehicle: saline 103 % of control and 122 % of control and 97 % of control

C=C[C@H]1[C@H](OC2OC(CO)C(O)C(O)C2O)OC=C2C(=O)N3CCS[C@H]3C[C@H]21 (stereo not given in full)
inactive: dose: 9.38 mg/kg/injection, schedule: Q01DX005 (ip), vehicle: Klucel (hydroxypropylcellulose) (HPC) 97 % of control | dose: 18.75 mg/kg/injection, schedule: Q01DX005 (ip), vehicle: Klucel (hydroxypropylcellulose) (HPC) 98 % of control | dose: 37.5 mg/kg/injection, schedule: Q01DX005 (ip), vehicle: Klucel (hydroxypropylcellulose) (HPC) 107 % of control | dose: 75.0 mg/kg/injection, schedule: Q01DX005 (ip), vehicle: Klucel (hydroxypropylcellulose) (HPC) 95 % of control | dose: 150.0 mg/kg/injection, schedule: Q01DX005 (ip), vehicle: Klucel (hydroxypropylcellulose) (HPC) 98 % of control

O=C(N/N=C/c1ccco1)c1ccc(OCc2nc3ccccc3[nH]2)cc1
inactive: dose: 25.0 mg/kg/injection, schedule: Q01DX005 (ip), vehicle: saline with Tween-80 97 % of control | [5] 94 % of control | [3] 87 % of control | [4] 94 % of control

O=[N+]([O-])c1ccc(/C=C\S(=O)(=O)OCCCl)cc1
inactive: [1] 100 % of control

CC(C)C(N)C(=O)O (stereo not given)
inactive: [11] 100 % of control | [12] 100 % of control | [13] 91 % of control

CCC1(CC(=O)O)OCCc2c1[nH]c1c(C)c(F)ccc21 (stereo not given)
inactive: [11] 95 % of control | [12] 96 % of control | [13] 104 % of control

O=C1OC(C(=O)O)c2ccc3c(c21)OCO3 (stereo not given)
inactive: [7] 100 % of control | [9] 98 % of control | [10] 91 % of control

CN(C(=O)c1cc2c(cc1Br)OCO2)c1ccccc1
inactive: dose: 25.0 mg/kg/injection, schedule: Q01DX009 (ip), vehicle: other 100 % of control | dose: 50.0 mg/kg/injection, schedule: Q01DX009 (ip), vehicle: other 98 % of control | dose: 100.0 mg/kg/injection, schedule: Q01DX009 (ip), vehicle: other 111 % of control

O=C(O)c1c[nH]c2cc(S(=O)(=O)O)ccc2c1=O
inactive: [8] 95 % of control | dose: 100.0 mg/kg/injection, schedule: Q01DX009 (ip), vehicle: saline 100 % of control | dose: 200.0 mg/kg/injection, schedule: Q01DX009 (ip), vehicle: saline 92 % of control

Cc1[nH]cc2c1C(c1ccccc1F)=NCC(=O)N2
inactive: dose: 100.0 mg/kg/injection, schedule: Q04DX003 (ip), vehicle: saline with Tween-80 101 % of control | dose: 200.0 mg/kg/injection, schedule: Q04DX003 (ip), vehicle: saline with Tween-80 100 % of control | dose: 400.0 mg/kg/injection, schedule: Q04DX003 (ip), vehicle: saline with Tween-80 101 % of control

COc1ccc2c(c1)-c1nn(CCO)c(-c3cccnc3)c1CC2
inactive: dose: 100.0 mg/kg/injection, schedule: Q04DX002 (ip), vehicle: DMSO 94 % of control | dose: 200.0 mg/kg/injection, schedule: Q04DX002 (ip), vehicle: DMSO 102 % of control

CSCCCNC(=O)c1csc(CCNC(=O)c2ccccc2)n1
inactive: [7] 104 % of control | [9] 109 % of control | [10] 104 % of control

Nc1nc(N)c(Cc2ccccn2)cc1Cc1ccccn1
inactive: [1] 98 % of control | [2] 103 % of control

CCc1[nH]c2ccccc2c1C(=O)c1cccnc1
inactive: dose: 50.0 mg/kg/injection, schedule: Q04DX003 (ip), vehicle: Klucel (hydroxypropylcellulose) (HPC) 101 % of control | dose: 100.0 mg/kg/injection, schedule: Q04DX003 (ip), vehicle: Klucel (hydroxypropylcellulose) (HPC) 97 % of control | dose: 200.0 mg/kg/injection, schedule: Q04DX003 (ip), vehicle: Klucel (hydroxypropylcellulose) (HPC) 100 % of control

CC1(C)CC(C)(C)C2(OC3=C([Se]2)C(C)(C)CC(C)(C)C3=O)C(=O)C1=O (stereo not given)
inactive: [6] 100 % of control | [7] 118 % of control | [9] 117 % of control
